Values after ≈ are worked out from the molar mass of the structure shown.
Assays:
CYP1A2 = molecular target: T1, CYP1A2 (Homo sapiens, UniProt P05177); assay: Inhibition of CYP1A2 (unknown origin) at 20 uM; type: ADME
T1 sequence (P05177 whole entry): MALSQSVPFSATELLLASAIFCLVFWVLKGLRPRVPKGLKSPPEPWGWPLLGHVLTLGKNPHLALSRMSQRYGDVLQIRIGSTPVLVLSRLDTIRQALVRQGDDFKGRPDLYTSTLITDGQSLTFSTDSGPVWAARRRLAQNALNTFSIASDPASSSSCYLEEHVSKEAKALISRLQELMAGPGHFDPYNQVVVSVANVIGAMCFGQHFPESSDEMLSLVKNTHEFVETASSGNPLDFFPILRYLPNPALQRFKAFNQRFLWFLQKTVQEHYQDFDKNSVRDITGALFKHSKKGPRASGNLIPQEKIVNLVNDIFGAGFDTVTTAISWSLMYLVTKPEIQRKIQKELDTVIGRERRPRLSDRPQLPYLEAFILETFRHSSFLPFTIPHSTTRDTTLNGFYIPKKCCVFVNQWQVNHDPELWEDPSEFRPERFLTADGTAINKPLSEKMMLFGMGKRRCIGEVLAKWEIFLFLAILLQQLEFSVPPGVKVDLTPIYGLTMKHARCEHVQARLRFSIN

[1] = AUC (0 to infinity) in BALB/c mouse at 1 mg/kg, iv measured upto 24 hrs by LC-MS/MS analysis; type: ADME, organism-based; design: time < 24 hrs, dose 1 mg/kg, route iv; details: in vivo
[2] = Clearance in BALB/c mouse at 1 mg/kg, iv measured upto 24 hrs by LC-MS/MS analysis; type: ADME, organism-based; details: in vivo
[3] = Cmax in BALB/c mouse at 1 mg/kg, iv measured upto 24 hrs by LC-MS/MS analysis; type: ADME, organism-based; design: time < 24 hrs, dose 1 mg/kg, route iv; details: in vivo
[4] = Half life in BALB/c mouse at 5 mg/kg, po measured upto 24 hrs by LC-MS/MS analysis; type: ADME, organism-based; details: in vivo
[5] = Plasma protien binding of the compound incubated for 24 hrs by equilibrium dialysis method; type: ADME, cell-free; details: read-out: PPB (converted)
CYP2B6 = molecular target: T2, CYP2B6 (Homo sapiens, UniProt P20813); assay: Inhibition of CYP2B6 (unknown origin) at 20 uM; type: ADME
T2 sequence (P20813 whole entry): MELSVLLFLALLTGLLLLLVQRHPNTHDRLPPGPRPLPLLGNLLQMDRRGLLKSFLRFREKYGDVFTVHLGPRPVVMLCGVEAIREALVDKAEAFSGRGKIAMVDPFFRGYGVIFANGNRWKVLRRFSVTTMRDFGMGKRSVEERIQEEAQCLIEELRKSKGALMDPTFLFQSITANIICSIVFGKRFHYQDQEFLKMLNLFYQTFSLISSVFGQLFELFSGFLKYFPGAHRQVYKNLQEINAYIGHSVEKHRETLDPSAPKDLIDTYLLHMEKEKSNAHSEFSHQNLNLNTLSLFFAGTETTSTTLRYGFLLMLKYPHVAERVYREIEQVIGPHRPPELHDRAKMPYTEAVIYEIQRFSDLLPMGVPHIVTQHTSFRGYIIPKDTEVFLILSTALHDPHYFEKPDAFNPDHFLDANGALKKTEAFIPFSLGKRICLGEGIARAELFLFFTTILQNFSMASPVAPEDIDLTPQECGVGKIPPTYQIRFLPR

[6] = Metabolic stability in mouse liver microsomes assessed as parent compound remaining at 10 uM measured after 60 mins; type: ADME, Microsome; details: read-out: Stability
[7] = Kinetic solubility of compound in simulated intestinal fluid at pH 6.8 measured after 24 hrs by HPLC analysis; type: physicochemical; details: read-out: Kinetic_solubility
[8] = Metabolic stability in human liver microsomes assessed as half life; type: ADME, Microsome
[9] = Kinetic solubility of compound in simulated gastric fluid at pH 1.2 measured after 24 hrs by HPLC analysis; type: physicochemical; details: read-out: Kinetic_solubility
[10] = Half life in BALB/c mouse at 1 mg/kg, iv measured upto 24 hrs by LC-MS/MS analysis; type: ADME, organism-based; details: in vivo
[11] = Metabolic stability in mouse liver microsomes assessed as intrinsic clearance; type: ADME, Microsome; details: read-out: CLH
[12] = molecular target: T3, Prostaglandin E2 receptor EP1 subtype (Homo sapiens, UniProt P34995); assay: Antagonist activity at human EP1 receptor transfected in CHO/Galpha16 cells preincubated for 15 mins followed by PGE2 addition by calcium flux assay; type: functional, cell-based
T3 sequence (P34995 whole entry): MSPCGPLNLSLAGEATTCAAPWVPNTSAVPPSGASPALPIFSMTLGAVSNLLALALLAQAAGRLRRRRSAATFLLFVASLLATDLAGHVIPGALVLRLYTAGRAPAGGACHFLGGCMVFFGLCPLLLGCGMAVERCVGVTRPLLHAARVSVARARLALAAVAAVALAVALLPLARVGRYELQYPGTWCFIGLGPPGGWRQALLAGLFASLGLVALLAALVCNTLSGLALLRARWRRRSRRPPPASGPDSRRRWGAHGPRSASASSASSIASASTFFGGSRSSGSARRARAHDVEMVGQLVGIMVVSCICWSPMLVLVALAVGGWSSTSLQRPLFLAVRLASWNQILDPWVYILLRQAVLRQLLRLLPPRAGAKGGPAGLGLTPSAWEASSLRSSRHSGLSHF

[13] = molecular target: T4, Prostaglandin E2 receptor EP3 subtype (Homo sapiens, UniProt P43115); assay: Antagonist activity at human EP3 receptor transfected in CHO/Galpha16 cells preincubated for 15 mins followed by PGE2 addition by calcium flux assay; type: functional, cell-based
T4 sequence (P43115 whole entry): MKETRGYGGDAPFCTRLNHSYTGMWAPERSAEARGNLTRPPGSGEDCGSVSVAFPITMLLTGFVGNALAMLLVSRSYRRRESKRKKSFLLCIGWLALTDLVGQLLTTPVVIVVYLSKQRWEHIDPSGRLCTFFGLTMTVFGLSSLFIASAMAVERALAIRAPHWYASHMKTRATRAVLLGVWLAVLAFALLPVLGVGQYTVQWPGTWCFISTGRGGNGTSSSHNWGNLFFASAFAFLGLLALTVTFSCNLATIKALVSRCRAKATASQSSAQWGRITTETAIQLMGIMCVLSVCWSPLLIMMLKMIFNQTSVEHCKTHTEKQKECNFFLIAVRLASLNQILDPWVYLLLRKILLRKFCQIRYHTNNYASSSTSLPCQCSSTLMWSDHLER

[14] = molecular target: Voltage-gated inwardly rectifying potassium channel KCNH2 (Homo sapiens, UniProt Q12809); assay: Inhibition of human ERG potassium channel transfected in HEK293 cells by whole-cell patch clamp assay; type: toxicity, cell-based
[15] = Metabolic stability in human liver microsomes assessed as parent compound remaining at 10 uM measured after 60 mins; type: ADME, Microsome; details: read-out: Stability
CYP2C9 = CYP2C9 (Homo sapiens, UniProt P11712); assay: Inhibition of CYP2C9 (unknown origin) at 20 uM; type: ADME
[16] = Metabolic stability in mouse liver microsomes assessed as half life; type: ADME, Microsome
[17] = Clearance in BALB/c mouse at 5 mg/kg, po measured upto 24 hrs by LC-MS/MS analysis; type: ADME, organism-based; details: in vivo
[18] = molecular target: Prostaglandin E2 receptor EP4 subtype (Mus musculus, UniProt P32240); assay: Antagonist activity at mouse EP4 receptor transfected in CHO/Galpha16 cells preincubated for 15 mins followed by PGE2 addition by calcium flux assay; type: functional, cell-based
Sequence of Prostaglandin E2 receptor EP4 subtype (P32240 whole entry): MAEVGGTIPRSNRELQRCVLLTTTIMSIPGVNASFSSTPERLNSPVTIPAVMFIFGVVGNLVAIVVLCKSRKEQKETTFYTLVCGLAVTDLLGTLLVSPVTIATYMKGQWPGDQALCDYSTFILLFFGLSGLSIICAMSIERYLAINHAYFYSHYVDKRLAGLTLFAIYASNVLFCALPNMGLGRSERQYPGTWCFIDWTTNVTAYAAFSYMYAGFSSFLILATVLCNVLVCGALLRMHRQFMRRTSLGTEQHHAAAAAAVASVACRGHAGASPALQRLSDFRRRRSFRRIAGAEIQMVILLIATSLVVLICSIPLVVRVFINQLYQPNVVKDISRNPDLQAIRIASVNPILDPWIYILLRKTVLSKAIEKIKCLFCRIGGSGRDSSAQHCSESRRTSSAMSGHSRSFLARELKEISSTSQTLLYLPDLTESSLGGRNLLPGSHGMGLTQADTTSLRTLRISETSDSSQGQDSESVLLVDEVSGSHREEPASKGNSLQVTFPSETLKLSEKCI

Sequence of CYP2C9 (P11712 whole entry): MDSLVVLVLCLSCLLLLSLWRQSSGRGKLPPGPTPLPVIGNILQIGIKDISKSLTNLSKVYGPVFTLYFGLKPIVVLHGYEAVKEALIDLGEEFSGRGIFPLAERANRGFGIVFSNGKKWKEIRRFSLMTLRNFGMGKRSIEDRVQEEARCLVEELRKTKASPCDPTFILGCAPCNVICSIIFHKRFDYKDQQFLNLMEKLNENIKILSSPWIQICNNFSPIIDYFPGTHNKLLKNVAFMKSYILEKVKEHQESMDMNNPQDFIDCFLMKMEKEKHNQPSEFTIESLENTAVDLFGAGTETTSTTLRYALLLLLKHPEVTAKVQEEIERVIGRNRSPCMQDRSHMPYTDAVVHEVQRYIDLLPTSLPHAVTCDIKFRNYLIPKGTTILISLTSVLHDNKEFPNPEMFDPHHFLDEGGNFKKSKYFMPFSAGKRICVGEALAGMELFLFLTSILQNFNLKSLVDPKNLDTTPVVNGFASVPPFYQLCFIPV
Sequence of Voltage-gated inwardly rectifying potassium channel KCNH2 (Q12809 whole entry): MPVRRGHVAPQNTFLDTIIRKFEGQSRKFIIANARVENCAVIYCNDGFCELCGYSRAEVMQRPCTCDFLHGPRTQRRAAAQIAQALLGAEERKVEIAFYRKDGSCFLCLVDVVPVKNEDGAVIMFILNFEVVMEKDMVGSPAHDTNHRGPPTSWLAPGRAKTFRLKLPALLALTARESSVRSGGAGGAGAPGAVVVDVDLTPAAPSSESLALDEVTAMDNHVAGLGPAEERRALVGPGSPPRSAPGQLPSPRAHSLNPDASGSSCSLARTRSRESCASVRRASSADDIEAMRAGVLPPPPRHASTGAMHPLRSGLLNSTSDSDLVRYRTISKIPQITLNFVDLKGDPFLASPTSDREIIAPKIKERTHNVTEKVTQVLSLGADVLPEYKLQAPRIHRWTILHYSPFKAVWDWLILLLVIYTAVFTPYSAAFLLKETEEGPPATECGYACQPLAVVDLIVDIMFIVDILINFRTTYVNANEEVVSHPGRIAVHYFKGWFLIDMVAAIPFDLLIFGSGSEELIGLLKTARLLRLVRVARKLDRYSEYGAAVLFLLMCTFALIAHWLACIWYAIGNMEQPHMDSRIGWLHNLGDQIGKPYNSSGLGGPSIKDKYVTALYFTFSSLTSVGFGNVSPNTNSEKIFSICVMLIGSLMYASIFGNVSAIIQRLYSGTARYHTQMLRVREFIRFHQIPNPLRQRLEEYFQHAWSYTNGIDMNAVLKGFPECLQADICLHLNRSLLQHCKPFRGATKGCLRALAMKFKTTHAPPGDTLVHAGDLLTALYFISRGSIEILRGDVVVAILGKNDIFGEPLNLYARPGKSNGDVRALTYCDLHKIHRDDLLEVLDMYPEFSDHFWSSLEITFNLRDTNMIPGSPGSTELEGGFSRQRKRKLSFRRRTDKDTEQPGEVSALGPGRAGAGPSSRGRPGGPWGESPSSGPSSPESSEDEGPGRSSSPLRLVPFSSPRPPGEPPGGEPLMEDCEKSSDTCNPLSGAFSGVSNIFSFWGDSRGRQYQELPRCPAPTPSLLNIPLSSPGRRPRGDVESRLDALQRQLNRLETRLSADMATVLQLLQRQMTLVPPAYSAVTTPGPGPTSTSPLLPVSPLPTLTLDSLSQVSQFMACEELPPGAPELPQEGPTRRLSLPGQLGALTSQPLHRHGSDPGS

SMILES	inhibition at 20 µM (CYP1A2) [%]	AUC(0-inf) [1] [ng·h/mL]	clearance [2] [mL/min/kg]	Cmax [3] [ng/mL]	half-life [4] [h]	fraction unbound at 24 h [5]	inhibition at 20 µM (CYP2B6) [%]	remaining at 1 h, 10 µM [6] [%]	solubility kinetic at 24 h [7] [µM]	half-life [8] [h]	solubility kinetic at 24 h [9] [µM]	half-life [10] [h]	microsomal CLint [11] [µL/min/mg]	IC50 [12] [µM]	IC50 [13] [µM]	IC50 [14] [µM]	remaining at 1 h, 10 µM [15] [%]	inhibition at 20 µM (CYP2C9) [%]	half-life [16] [h]	CL/F [17] [mL/min/kg]	also measured
O=C(O)c1ccc(CNC(=O)c2c(Cc3ccc(F)cc3)sc3c2CCOC3)cc1	46	735	22.7	2840	6.2	0.062	78	92.1	> 200	> 2.42	2.97 (≈ 1.26 µg/mL)	3.2	< 9.6	> 10	> 10	> 30	89.8	44	> 2.42	38.5	IC50 [18]: 0.0243 µM
C[C@H](NC(=O)c1c(Cc2cccc(C(F)(F)F)c2)sc2c1CCOC2)c1ccc(C(=O)O)cc1	60	683	24.6	2800	3.5	0.034	75	90.2	182 (≈ 89.1 µg/mL)	> 2.42	< 1	3.4	< 9.6	> 10	> 10	> 30	84.6	27	> 2.42	49.9	IC50 [18]: 0.0028 µM
